From patent publication EP0336230B1, “Cyclic peptide antagonists of Substance P and Substance K” (FUJISAWA PHARMACEUTICAL CO., LTD., priority 1988, dated 1989)
Numbered stars: 1 amine (or outer) side, 2 acyl side, 3 side chain; on linkers, the order of the positions; unused ones are H or OH. Bridge positions count the residues as written; N and C are the ends. Square brackets hold non-standard residues; d marks the D form. Peptide text beside a SMILES is read from it. * marks the point of attachment. Cinnamoyl(2-(1Z-pentenyl)) = CCC/C=C\c1ccccc1/C=C/C(=O)*; X3 = CC(=O)Oc1ccc(/C=C(\C(=O)[*:2])N(C)[*:1])cc1; X1 = CN(/C(=C/c1ccc(O)cc1)C(=O)[*:2])[*:1]; aThr = C[C@H](O)[C@H](N)C(=O)O; X2 = CCCCCc1ccccc1CCC(=O)*

How the values were obtained:
[1] = target: T1, specific [^3H] substance P binding to guinea pig lung membranes (Cavia porcellus, UniProt P30547); experiment: ^3H-substance P binding to preparative membranes (guinea pig lung); conditions: ^3H-Substance P 1nM, 4°C, 30 minutes, read-out: IC50 (M), displacement of specific [^3H] substance P binding
T1 construct: from tissue; host or cells: guinea pig trachea and lung, crude membrane fraction
T1 sequence (P30547 whole entry): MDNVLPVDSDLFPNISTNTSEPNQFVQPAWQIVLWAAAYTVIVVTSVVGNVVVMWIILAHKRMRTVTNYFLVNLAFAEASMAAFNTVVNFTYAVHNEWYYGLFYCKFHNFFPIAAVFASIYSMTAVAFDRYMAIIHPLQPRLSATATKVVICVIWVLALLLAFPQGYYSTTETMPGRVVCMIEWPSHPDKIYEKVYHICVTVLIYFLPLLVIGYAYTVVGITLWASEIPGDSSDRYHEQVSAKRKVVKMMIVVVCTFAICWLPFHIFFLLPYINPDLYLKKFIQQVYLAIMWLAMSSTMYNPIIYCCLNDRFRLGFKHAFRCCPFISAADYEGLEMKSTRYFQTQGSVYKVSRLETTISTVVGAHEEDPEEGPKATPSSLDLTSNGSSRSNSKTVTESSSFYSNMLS
Description: (a) Crude membrane preparation
Male albino Hartley strain guinea pigs (600 g) were sacrificed by decapitation. The trachea and lungs were removed, and stored at -80°C until use. These tissues (150 g) were thawed and homogenized in 500 ml buffer (0.25 M sucrose, 50 mM Tris-HCℓ pH 7.5, 0.1 mM EDTA) with a compact mixer (Matsuden MJ-761). The tissue was homogenized with a Ultra-Disperser (Yamato MODEL LK-21) at a setting of maximum range for 10-s at 10-s intervals with cooling between homogenizations (total homogenization's time : 60 seconds). The homogenate was centrifuged (900 x g for 10 min.) to remove tissue clumps and the supernatant centrifuged at 14000 x g for 20 min. to yield pellets which were referred to as crude membrane fractions. The pellets were resuspended in Medium I, homogenized with a teflon homogenizer and centrifuged at 14000 x g for 20 min. The pellets were stored at -20°C.
(b) ^3H-substance P binding to preparative membranes
^3H-Substance P (1nM, New England Nuclear) was incubated with 50 µℓ of the membrane preparation in medium I at 4°C for 30 minutes in a final volume of 250 µℓ. […] The radioactivity was counted in 3 ml of Aquazol-2 in Packard sintillation counter (Packard TRI-CARB 4530).

[2] = Solubility in solvents (physical and chemical properties); type: physicochemical
Description: The obtained product was triturated from diethyl ether to give triacetyl-WS-9326A (332 mg) as a colorless powder. Physical and chemical properties of the triacetyl-WS-9326A are as follows. […] (23)/(D) [formula] : -122° (C=1.0, MeOH) (6) Ultraviolet Absorption Spectrum : λ (MeOH)/(max) [formula] = 283 nm (ε=32,000) (7) Molecular Formula : C60H74N8O16 (8) Elemental Analysis : […]

| SMILES | IC50 [1] [M] | Solubility ([2]; chloroform) | Solubility ([2]; diethyl ether) | Solubility ([2]; dimethyl sulfoxide) | Solubility ([2]; methanol) | Solubility ([2]; n-hexane) |
| --- | --- | --- | --- | --- | --- | --- |
| CCCCCc1ccccc1CCC(=O)N[C@@H]1C(=O)N(C)/C(=C/c2ccc(O)cc2)C(=O)N[C@@H](CC(C)C)C(=O)N[C@H](Cc2ccccc2)C(=O)N[C@@H]([C@H](C)O)C(=O)N[C@@H](CC(N)=O)C(=O)N[C@@H](CO)C(=O)O[C@@H]1C [Tetrahydro-WS-9326A] (X2-T[X1]L[dF][aThr]NS; ester 1-C) | 4.2e-07 |  |  |  |  |  |
| CCC/C=C\c1ccccc1/C=C/C(=O)N[C@@H]1C(=O)N(C)/C(=C/c2ccc(OC(C)=O)cc2)C(=O)N[C@@H](CC(C)C)C(=O)N[C@H](Cc2ccccc2)C(=O)N[C@@H]([C@H](C)OC(C)=O)C(=O)N[C@@H](CC(N)=O)C(=O)N[C@@H](COC(C)=O)C(=O)O[C@@H]1C [triacetyl-WS-9326A] ({Cinnamoyl(2-(1Z-pentenyl))}-T[X3]L[dF][aThr](Ac)NS(Ac); ester 1-C) |  | Sparingly Soluble | Sparingly Soluble | Soluble | Soluble | Insoluble |
